The record followed here is patent publication US7799792B2, “Metabotropic glutamate receptor oxadiazole ligands and their use as potentiators 841” (AstraZeneca AB, priority 2007, dated 2010).

≈ marks a conversion by molar mass, not a printed value.

For data set [1], the target named is T1, human mGluR2 receptor (Homo sapiens, UniProt Q14416).
T1 construct: expressed in transfected cells; host or cells: CHO cells, stably transfected; membranes
The experiment in a line: [35S]-GTPγS binding assay of mGluR2 receptor activation (allosteric activator activity). Particulars: membranes from CHO cells stably expressing human mGluR2; 1 μM glutamate; read-out: GTPgS EC50. Format: biochemical. As for the experimental part:
A [^35S]-GTPγS binding assay was used to functionally assay mGluR2 receptor activation. The allosteric activator activity of compounds at the human mGluR2 receptor were measured using a [^35S]-GTPγS binding assay with membranes prepared from CHO cells which stably express the human mGluR2. The assay is based upon the principle that agonists bind to G-protein coupled receptors to stimulate GDP-GTP exchange at the G-protein. Since [^35S]-GTPγS is a non-hydrolyzable GTP analog, it can be used to provide an index of GDP-GTP exchange and, thus, receptor activation. The GTPγS binding assay therefore provides a quantitative measure of receptor activation.
Membranes were prepared from CHO cells stably transfected with human mGluR2. Membranes (30 μg protein) were incubated with test compound (3 nM to 300 μM) for 15 minutes at room temperature prior to the addition of 1 μM glutamate, and incubated for 30 min at 30° C. in 500 μl assay buffer (20 mM HEPES, 100 mM NaCl, 10 mM MgCl2), containing 30 μM GDP and 0.1 nM [^35S]-GTPγS (1250 Ci/mmol). Reactions were carried out in triplicate in 2 ml polypropylene 96-well plates. Reactions were terminated by vacuum filtration using a Packard 96-well harvester and Unifilter-96, GF/B filter microplates. The filter plates were washed 4×1.5 ml with ice-cold wash buffer (10 mM sodium phosphate buffer, pH 7.4). The filter plates were dried and 35 μl of scintillation fluid (Microscint 20) was added to each well. The amount of radioactivity bound was determined by counting plates on the Packard TopCount. Data was analyzed using GraphPad Prism, and EC50 and Emax values (relative to the maximum glutamate effect) were calculated using non-linear regression.

Data set [2] in a line: Aqueous solubility in pH 7.4 phosphate buffer. In kind it is physicochemical. Particulars: thermodynamic from solid, equilibration 24 h at 25° C., read-out: Aq. solubility. Here is the method:
Solubility was determined in pH 7.4 phosphate buffer after equilibration for 24 h at 25° C. and HPLC-UV and LC-MSMS were used for quantitation.

T1 sequence (Q14416 19-872): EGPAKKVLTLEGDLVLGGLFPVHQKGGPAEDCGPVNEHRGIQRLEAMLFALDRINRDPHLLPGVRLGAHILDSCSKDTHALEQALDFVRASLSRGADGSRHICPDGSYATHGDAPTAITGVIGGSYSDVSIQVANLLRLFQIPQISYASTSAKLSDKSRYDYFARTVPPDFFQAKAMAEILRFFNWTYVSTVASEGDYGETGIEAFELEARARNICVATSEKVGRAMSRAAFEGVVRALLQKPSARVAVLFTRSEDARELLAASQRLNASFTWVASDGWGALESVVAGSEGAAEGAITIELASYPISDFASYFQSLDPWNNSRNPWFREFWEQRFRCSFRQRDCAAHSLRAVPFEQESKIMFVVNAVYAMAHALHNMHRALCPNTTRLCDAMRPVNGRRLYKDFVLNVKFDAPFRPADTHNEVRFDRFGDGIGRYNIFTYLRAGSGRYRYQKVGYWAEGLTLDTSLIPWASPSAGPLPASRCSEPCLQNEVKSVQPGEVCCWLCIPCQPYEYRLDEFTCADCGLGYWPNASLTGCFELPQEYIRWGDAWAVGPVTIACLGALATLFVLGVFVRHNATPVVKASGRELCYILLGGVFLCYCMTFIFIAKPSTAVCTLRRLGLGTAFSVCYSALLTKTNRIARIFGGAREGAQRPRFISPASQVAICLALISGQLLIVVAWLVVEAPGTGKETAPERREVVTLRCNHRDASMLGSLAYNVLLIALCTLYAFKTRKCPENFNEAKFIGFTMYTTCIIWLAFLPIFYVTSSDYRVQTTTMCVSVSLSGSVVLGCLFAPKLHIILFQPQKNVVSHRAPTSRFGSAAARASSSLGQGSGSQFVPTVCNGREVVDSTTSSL

In general, EC50 refers to the concentration that produces a half-maximal response. One may read the solubility as the dissolved amount per volume that the medium holds. Regarding `O=C1c2c(Cl)cc(-c3noc(CN4CCNCC4)n3)cc2CN1Cc1ccc(OC(F)(F)F)cc1` [Example 1, 7-Chloro-5-(5-piperazin-1-ylmethyl-[1,2,4]oxadiazol-3-yl)-2-(4-trifluoromethoxybenzyl)-2,3-dihydroisoindol-1-one], in data set [1], the EC50 was found to be 226 nM. Further, in data set [2], the solubility at 24 h amounted to 139 µM (≈ 70.6 µg/mL).
For `O=C1c2c(Cl)cc(-c3noc(CN4CCNCC4)n3)cc2CN1Cc1ccc(Cl)cc1` [Example 2, 7-chloro-2-(4-chlorobenzyl)-5-(5-piperazin-1-ylmethyl-[1,2,4]oxadiazol-3-yl)-2,3-dihydroisoindol-1-one] the same measures were 431 nM and 176 µM (≈ 80.7 µg/mL).
In the same order, the values of `Cc1cc(-c2noc(CN3CCNCC3)n2)cc2c1C(=O)N(Cc1ccc(OC(F)(F)F)cc1)C2` [Example 3, 7-methyl-5-(5-piperazin-1-ylmethyl-[1,2,4]oxadiazol-3-yl)-2-(4-trifluoro-methoxybenzyl)-2,3-dihydroisoindol-1-one] are 147 nM and 111 µM (≈ 54.1 µg/mL).
For `Cc1cc(-c2noc(CN3CCNCC3)n2)cc2c1C(=O)N(Cc1ccc(Cl)cc1)C2` [Example 4, 2-(4-chlorobenzyl)-7-methyl-5-(5-piperazin-1-ylmethyl-[1,2,4]oxadiazol-3-yl)-2,3-dihydroisoindol-1-one] the same measures were 317 nM and 166 µM (≈ 72.7 µg/mL).
In the case of `Cc1cc(-c2noc(CN3C[C@@H]4C[C@H]3CN4)n2)cc2c1C(=O)N(Cc1ccc(OC(F)(F)F)cc1)C2` [Example 5, 5-[5-(2,5-diaza-bicyclo[2.2.1]hept-2-ylmethyl)-[1,2,4]oxadiazol-3-yl]-7-methyl-2-(4-trifluoromethoxybenzyl)-2,3-dihydroisoindol-1-one], the EC50 in data set [1] was 75 nM. For the same molecule, the solubility at 24 h in data set [2] is 141 µM (≈ 70.4 µg/mL).
In the case of `Cc1cc(-c2noc(CN3CCNCC3)n2)cc2c1C(=O)N([C@@H](C)c1ccc(Cl)cc1)C2` [Example 6, 2-[(S)-1-(4-Chloro-phenyl)-ethyl]-7-methyl-5-(5-piperazin-1-ylmethyl-[1,2,4]oxadiazol-3-yl)-2,3-dihydro-isoindol-1-one], in data set [1], the EC50 was found to be 47.8 nM. Also, in data set [2], the solubility at 24 h stood at 96 µM (≈ 43.4 µg/mL).
For `Cc1cc(-c2noc(CN3C[C@@H]4C[C@H]3CN4)n2)cc2c1C(=O)N([C@@H](C)c1ccc(Cl)cc1)C2` [Example 7, 2-[(S)-1-(4-Chloro-phenyl)-ethyl]-5-{5-[(1S,4S)-1-(2,5-diaza-bicyclo[2.2.1]hept-2-yl)methyl]-[1,2,4]oxadiazol-3-yl}-7-methyl-2,3-dihydro-isoindol-1-one] the same measures were 352 nM and 158 µM (≈ 73.3 µg/mL).
In the same order, the values of `Cc1cc(-c2noc(CN3CCNC[C@H]3C)n2)cc2c1C(=O)N(Cc1ccc(Cl)cc1)C2` [Example 8, 2-(4-chloro-benzyl)-7-methyl-5-[5-(2-methyl-piperazin-1-ylmethyl)-[1,2,4]oxadiazol-3-yl]-2,3-dihydroisoindol-1-one] are 202 nM and 228 µM (≈ 103 µg/mL).
In the same order, the values of `Cc1cc(-c2noc(CN3CCNC[C@@H]3C)n2)cc2c1C(=O)N(Cc1ccc(Cl)cc1)C2` [Example 9, 2-(4-chloro-benzyl)-7-methyl-5-[5-(2-methyl-piperazin-1-ylmethyl)-[1,2,4]oxadiazol-3-yl]-2,3-dihydroisoindol-1-one] are 323 nM and 158 µM (≈ 71.4 µg/mL).
For the molecule `Cc1cc(-c2noc(CN3CCNC(C)C3)n2)cc2c1C(=O)N(Cc1ccc(Cl)cc1)C2` (stereo not shown) [Example 10, 2-(4-chloro-benzyl)-7-methyl-5-[5-(3-methyl-piperazin-1-ylmethyl)-[1,2,4]oxadiazol-3-yl]-2,3-dihydroisoindol-1-one], the EC50 in data set [1] was determined as 121 nM. Besides, the solubility at 24 h in data set [2] came out at 148 µM (≈ 66.9 µg/mL).
`CC1(C)CN(Cc2nc(-c3cc(Cl)c4c(c3)CN(Cc3ccc(OC(F)(F)F)cc3)C4=O)no2)CCN1` [Example 11, 7-chloro-5-[5-(3,3-dimethyl-piperazin-1-ylmethyl)-[1,2,4]oxadiazol-3-yl]-2-(4-trifluoro-methoxybenzyl)-2,3-dihydroisoindol-1-one]: the EC50 in data set [1] is 147 nM. The solubility at 24 h in data set [2] came out at 230 µM (≈ 123 µg/mL).
With `Cc1cc(-c2noc(C(C)N3CCNCC3)n2)cc2c1C(=O)N(Cc1ccc(OC(F)(F)F)cc1)C2` (stereo not shown) [Example 12, 7-Methyl-5-[5-(1-piperazin-1-yl-ethyl)-[1,2,4]oxadiazol-3-yl]-2-(4-trifluoromethoxy-benzyl)-2,3-dihydro-isoindol-1-one], the EC50 in data set [1] was found to be 307 nM. For the same molecule, the solubility at 24 h in data set [2] is 182 µM (≈ 91.3 µg/mL).
Turning to `Cc1cc(-c2noc(C(C)N3CCNCC3)n2)cc2c1C(=O)N(Cc1ccc(Cl)cc1)C2` (stereo not shown) [Example 13, 2-(4-Chloro-benzyl)-7-methyl-5-[5-(1-piperazin-1-yl-ethyl)-[1,2,4]oxadiazol-3-yl]-2,3-dihydro-isoindol-1-one], in data set [1], the EC50 was found to be 283 nM. In data set [2], the solubility at 24 h was determined as 240 µM (≈ 108 µg/mL).
In the same order, the values of `Cc1cc(-c2noc(C(C)N3CCNCC3)n2)cc2c1C(=O)N([C@@H](C)c1ccc(Cl)cc1)C2` (stereo partly drawn) [Example 14, 2-[(S)-1-(4-Chloro-phenyl)-ethyl]-7-methyl-5-[5-(1-piperazin-1-yl-ethyl)-[1,2,4]oxadiazol-3-yl]-2,3-dihydro-isoindol-1-one] are 210 nM and 271 µM (≈ 126 µg/mL).
